According to PMC10584170, “Machine learning-based phenotypic imaging to characterise the targetable biology of Plasmodium falciparum male gametocytes for the development of transmission-blocking antimalarials” (PLOS Pathogens, 2023):
Like-named read-outs stand apart in the source and are kept apart here.

Assays:
[1] = tested on: HepG2 cells; conditions: cited from earlier work
[2] = tested on: HepG2 cells; test: HepG2 cytotoxicity counter-screen; conditions: for Mean TOX: mean of the HepG2 TOX50 values; for DGFA Tox50 HepG2: HepG2 value reported with the DGFA screen
[3] = tested on: P. falciparum female gametocytes; test: P. falciparum Dual Gamete Formation Assay (PfDGFA), female readout (Pfs25-positive female gametes); type: cell-based, Plasmodium falciparum NF54; conditions: for inhibition at 2 µM: 24h preincubation with gametocytes
Summary of the method: (§1)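 Male and female gamete formation were quantified by microscopy image analysis following 24 h incubation of mature NF54 gametocytes with compound and activation at 28°C with xanthurenic acid.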

[4] = tested on: P. berghei ookinete development; test: P. berghei Ookinete Development Assay (PbODA); type: cell-based, Plasmodium berghei; conditions: Mean TOX HepG2 over Pb ODA value; GREEN = >10-fold; RED = <10-fold
Source text: (§2) Fig 1 The activity of TCAMS compound identified in the Pf DGFA screen. (A) 85 molecules were confirmed active in the Pf DGFA. 58 were previously identified in one or more transmission-blocking screens. […] No molecule was identified with >4.7-fold greater activity against female gametocytes. Abbreviations (IC50 = concentration giving 50% inhibition, PbODA = P. berghei Ookinete Development Assay, PfDGFA = P. falciparum Dual Gamete Formation Assay, PfFGAA = P. falciparum Female Gametocyte Activation Assay, PfGCT = P. falciparum Gametocyte Viability ATP Assay).

[5] = tested on: P. falciparum male gametocytes; test: P. falciparum Dual Gamete Formation Assay (PfDGFA), male readout (exflagellation); type: cell-based, Plasmodium falciparum NF54; conditions: for inhibition at 2 µM: 24h preincubation with gametocytes
Summary of the method: as §1

[6] = tested on: P. falciparum female gametocytes; test: P. falciparum Female Gametocyte Activation Assay (PfFGAA); type: cell-based, Plasmodium falciparum
Source text: as §2

[7] = tested on: P. falciparum female gametocytes; set-up: method as in Miguel-Blanco et al 2017; conditions: ref Miguel-Blanco et al 2017; read-out: Pf female gametogenesis FGAA IC50; cited from earlier work
[8] = this study, read-out: Pf DGFA IC50 FEM
[9] = this study, read-out: Pf DGFA IC50 MALE
[10] = Mean TOX HepG2 over FGAA IC50, GREEN = >10-fold, RED = <10-fold

Row | SMILES | ODA TOX50 HepG2 [1] [µM] | Mean TOX [2] [µM] | Cytotox ratio Pf Female [3] | IC50 [3, 8] [nM] | Cytotox ratio Pb Ookinete [4] | Cytotox ratio Pf Male [5] | IC50 [5, 9] [nM] | further results
1 | Br.CC[C@H]1CN2CCc3cc(OC)c(OC)cc3[C@@H]2C[C@@H]1C[C@H]1NCCc2c1cc(OC)c(O)c2I [TC07] | 5.433 | 5.89 | 20.3 | 290 | 8736.5 | 7.0 | 840 | 
2 | CCC1=C[C@@H]2CN(C1)Cc1c([nH]c3ccccc13)[C@@](C(=O)OC)(c1cc3c(cc1OC)N(C)[C@H]1[C@@](O)(C(=O)OC)[C@H](O)[C@]4(CC)C=CCN5CC[C@]31[C@@H]54)C2.O=S(=O)(O)O [TC21] | 41.2098 | 48.44 | 4.8 |  | 80190.9 | 4844.5 | 10 | 
3 | COc1ccc(Nc2ncc(C#N)c(Nc3ccccc3C(N)=O)n2)cc1N1CCN(C)CC1.Cl [TC22] | 8.318 | 8.95 | 0.9 |  | 308001.0 | 89.5 | 100 | 
4 | CN1CCN(c2ccc(Nc3ncc(Cl)c(Nc4cccnc4C(N)=O)n3)cc2)CC1.Cl [TC24] | 4.624 | 5.46 | 1.0 | 5470 | 13093.5 | 11.9 | 460 | 
5 | COc1ccc(-c2cnc(N)c(-c3ccc(C(N)=O)cc3)c2)cc1OC [TC26] | 100 | 57.57 | 5.8 |  | 82067.7 | 205.6 | 280 | 
6 | CNC(=O)c1ccccc1Nc1nc(Nc2ccc(N3CCOCC3)cc2)ncc1Cl.Cl [TC28] | 3.631 | 2.23 | 0.223 |  | 3489.3 | 12.4 | 180 | 
7 | Cc1cccc(Nc2nc(N[C@@H]3CCCNC3)nc3cc[nH]c(=O)c23)c1.O=C(O)C(F)(F)F [TC29] | 4.57 | 4.09 | 0.532 | 7690 | 3922.6 | 19.5 | 210 | FGAA TOX50 HepG2 [1]: 3.25 µM; Cytotox ratio Pf FGAA [6, 10]: 2.2; IC50 [7]: 1850 nM
8 | COc1ccc2nc(-c3cc(-c4ccc(NC(=O)C(C)C)cc4)cnc3N)[nH]c2c1 [TC32] | 8.61 | 8.50 | 0.85 |  | 12253.3 | 19.8 | 430 | 
9 | Cl.NC(=O)c1ccccc1Nc1nc(Nc2cccc(N3CCN(CCO)CC3)c2)ncc1Cl [TC33] | 41.687 | 27.38 | 2.7 |  | 311828.0 | 58.3 | 470 | 
10 | Cn1c(Sc2ncnc3sccc23)nc2ccccc21 [TC34] | 100 | 100.00 | 178.6 | 560 | 156933.9 | 138.9 | 720 | FGAA TOX50 HepG2 [1]: 100 µM; Cytotox ratio Pf FGAA [6, 10]: 80.0; DGFA Tox50 HepG2 [2]: 100 µM; IC50 [7]: 1250 nM
11 | Cc1cc(Nc2ncc(C#N)c(Nc3ccccc3C(N)=O)n2)ccc1N1CCN(C)CC1.Cl [TC37] | 3.981 | 1.80 | 0.244 | 7400 | 66058.5 | 45.1 | 40 | FGAA TOX50 HepG2 [1]: 0.4 µM; Cytotox ratio Pf FGAA [6, 10]: 1.1; IC50 [7]: 1670 nM
12 | O=C(O)C(F)(F)F.O=c1[nH]ccc2nc(N[C@@H]3CCCNC3)nc(Nc3ccc(S(=O)(=O)N4CCOCC4)cc3)c12 [TC42] | 45.71 | 33.80 | 4.1 | 8170 | 23182.4 | 563.3 | 60 | 
13 | CN1CCN(c2ccc(Nc3ncc(C#N)c(Nc4ccccc4C(N)=O)n3)cc2)CC1.Cl [TC49] | 2.427 | 3.07 | 0.335 | 9170 | 95106.6 | 102.3 | 30 | 
14 | COc1ccc(Nc2ncc(OC)c(Nc3ccccc3C(N)=O)n2)cc1N1CCN(C)CC1.O=CO [TC59] | 13.49 | 9.37 | 1.2 | 7910 | 19018.5 | 52.0 | 180 | 
15 | Cc1cc(C(=O)OCC(=O)Nc2c(C)n(C)n(-c3ccccc3)c2=O)c(C)n1-c1ccc(F)cc1 [TC63] | 19.5 | 59.75 | 41.8 | 1430 | 166949.3 | 31.4 | 1900 | DGFA Tox50 HepG2 [2]: 100 µM
16 | COc1ccc2nc(-c3cc(-c4ccc(NC(C)=O)cc4)cnc3N)[nH]c2c1 [TC69] | 12.02 | 7.55 | 0.755 |  | 10513.6 | 14.0 | 540 | 
17 | C#C[C@H]1O[C@@H](n2cnc3c(Nc4cc(Br)cc(C(F)(F)F)c4)ncnc32)[C@H](O)[C@@H]1O [TC70] | 57.54 | 78.77 | 7.9 |  | 88432.3 | 262.6 | 300 | DGFA Tox50 HepG2 [2]: 100 µM
18 | COc1ccc(Nc2ncc(Cl)c(Nc3cccnc3C(N)=O)n2)cc1N1CCN(C)CC1.Cl [TC75] | 11.22 | 7.10 | 0.7 |  | 11414.1 | 17.8 | 400 | 
19 | CCS(=O)(=O)Nc1ccc2c(c1)/C(=C(/Nc1ccc(CN3CCCCC3)cc1)c1ccccc1)C(=O)N2 [TC81] | 16.98 | 8.77 | 0.9 |  | 6770.0 | 877.0 | 10 | 
20 | CN(C)CCOc1ccc(NC(=O)NC(C)(C)c2nc(-c3ccc(Cl)c(O)c3)c(-c3ccncc3)[nH]2)cc1.Cl [TCMDC-140744] |  | 21.75 |  |  |  |  |  | FGAA TOX50 HepG2 ([1]; HepG2 value reported with the FGAA screen, ref Miguel-Blanco et al 2017): 14.3 µM; Cytotox ratio Pf FGAA ([6]; human): 29.8; Tox50 ([2]; cytotoxic activity against HepG2 cells): 29.19 µM; Selectivity ratio F ([3]; HepG2 Tox50 versus female IC50): 76.37; Cytotox ratio Pf Female ([3]; Mean TOX HepG2 over DGFA IC50 FEM, GREEN = >10-fold, RED = <10-fold): 57.2; inhibition at 2 µM ([3]; Plasmodium falciparum, average of replicates, read-out: Average inhibition female (%)): 95.5%; inhibition at 2 µM ([3]; Plasmodium falciparum, replicate R1, read-out: % inhibition female (individual replicates) R1): 91.1%; inhibition at 2 µM ([3]; Plasmodium falciparum, replicate R2, read-out: % inhibition female (individual replicates) R2): 96.2%; inhibition at 2 µM ([3]; Plasmodium falciparum, replicate R3, read-out: % inhibition female (individual replicates) R3): 101%; inhibition at 2 µM ([3]; Plasmodium falciparum, replicate R4, read-out: % inhibition female (individual replicates) R4): 93.9%; IC50 ([3]; Plasmodium falciparum, PfDGFA, 24 h incubation with gametocytes before induction, female gamete readout, read-out: Female IC50): 380 nM; Selectivity Ratio M ([5]; HepG2 Tox50 versus male IC50): 89.77; Cytotox ratio Pf Male ([5]; Mean TOX HepG2 over DGFA IC50 MALE, GREEN = >10-fold, RED = <10-fold): 65.9; inhibition at 2 µM ([5]; Plasmodium falciparum, average of replicates, read-out: Average inhibition male (%)): 97.8%; inhibition at 2 µM ([5]; Plasmodium falciparum, replicate R1, read-out: % inhibition male (individual replicates) R1): 98.2%; inhibition at 2 µM ([5]; Plasmodium falciparum, replicate R2, read-out: % inhibition male (individual replicates) R2): 101%; inhibition at 2 µM ([5]; Plasmodium falciparum, replicate R3, read-out: % inhibition male (individual replicates) R3): 95.7%; inhibition at 2 µM ([5]; Plasmodium falciparum, replicate R4, read-out: % inhibition male (individual replicates) R4): 96.3%; IC50 ([5]; Plasmodium falciparum, PfDGFA, 24 h incubation with gametocytes before induction, exflagellation readout, read-out: Male IC50): 330 nM; IC50 [7]: 730 nM
